Test results reported in paper PMC2364971, “A Spectroscopic Study on PtCl4^(2−) Binding to Rabbit Skeletal Muscle G-Actin” (Metal-Based Drugs, 1995).

Target: T1, G-actin (rabbit skeletal muscle) (Oryctolagus cuniculus, UniProt P68135)
T1 construct: gene ACTA1
Test: fluorescence of NPM reacted with free Cys374 after PtCl4^[…]- incubation; Scatchard approach, least-square fit
Format: binding

## [Cl][Pt-2]([Cl])([Cl])[Cl] [PtCl4^2−]
  Kd: 100 nM
